Columns and labels:
[1] = target: Recombinant Cat D (Cathepsin D) (Homo sapiens (Human), UniProt P07339); test: In vitro enzymatic Cathepsin D (Cat D) FRET assay; type: biochemical; conditions: read-out: CatD IC50
Experimental: Recombinant Cat D was expressed in CHO cells. The assay buffer for CathepsinD is 0.05 M citrate pH 3.5, 10% DMSO final, 5 mM CHAPS. […] The assays are effectively started by the addition of different FRET substrates (20 nM for Cat D) and the combination is incubated for one hour. The FRET assay is terminated with by addition of Tris buffer, which raises the pH to neutrality, and the fluorescence is determined. The FRET substrate is a peptide with commercially available fluorophore and quencher, on opposite sides of the BACE cleavage site. […] Proteolytic cleavage of the FRET substrate releases quenching of fluorescence (Cat D excitation 500 nm and emission 580 nm).

[2] = target: Beta Secretase enzyme (BACE) (Homo sapiens (Human), UniProt P56817); test: In vitro enzymatic BACE FRET assay; type: biochemical; conditions: read-out: BACE1 Enzyme assay IC50
Experimental: In Vitro Enzymatic BACE FRET (Fluorescence Resonance Energy Transfer) Assay (Enzyme Assay Data in the Example Table I)
The assay buffer used in this screen is 0.05 M acetate, pH 4.2, 10% DMSO final, 100 uM genapol (which is a nonionic detergent, below its Critical Micelle Concentration). […] This assay is effectively started by the addition of FRET substrate (50 nM) and the combination is incubated for one hour. The FRET assay is terminated with by addition of Tris buffer, which raises the pH to neutrality, and the fluorescence is determined. The FRET substrate is a peptide with commercially available fluorophore and quencher, on opposite sides of the BACE cleavage site.

[3] = tested on: Aβ in lumbar CSF; conditions: healthy volunteers, cited from earlier work

Chain of Recombinant Cat D (Cathepsin D) (P07339 65-412, species assumed): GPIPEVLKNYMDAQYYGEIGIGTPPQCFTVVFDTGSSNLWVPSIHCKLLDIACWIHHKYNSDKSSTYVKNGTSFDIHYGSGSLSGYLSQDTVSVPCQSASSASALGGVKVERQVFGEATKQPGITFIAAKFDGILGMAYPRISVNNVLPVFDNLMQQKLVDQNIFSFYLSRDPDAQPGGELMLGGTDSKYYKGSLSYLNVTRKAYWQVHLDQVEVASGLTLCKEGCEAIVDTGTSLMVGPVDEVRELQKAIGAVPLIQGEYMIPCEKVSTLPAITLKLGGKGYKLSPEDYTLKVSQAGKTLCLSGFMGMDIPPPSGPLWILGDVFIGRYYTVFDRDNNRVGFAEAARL
Chain of Beta Secretase enzyme (BACE) (P56817 46-501, species assumed): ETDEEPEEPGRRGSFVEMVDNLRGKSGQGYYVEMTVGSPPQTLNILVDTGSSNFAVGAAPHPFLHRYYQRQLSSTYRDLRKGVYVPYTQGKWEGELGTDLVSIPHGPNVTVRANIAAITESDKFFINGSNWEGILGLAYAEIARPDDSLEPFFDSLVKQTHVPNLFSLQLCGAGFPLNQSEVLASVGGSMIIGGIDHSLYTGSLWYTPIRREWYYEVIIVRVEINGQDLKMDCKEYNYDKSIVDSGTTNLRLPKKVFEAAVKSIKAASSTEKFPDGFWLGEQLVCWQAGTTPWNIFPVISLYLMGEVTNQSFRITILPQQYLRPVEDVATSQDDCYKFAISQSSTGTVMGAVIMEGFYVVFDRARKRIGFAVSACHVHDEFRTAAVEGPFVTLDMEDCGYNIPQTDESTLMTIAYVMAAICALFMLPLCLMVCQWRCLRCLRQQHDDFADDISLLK

| Compound | IC50 [1] | IC50 [2] | Aβ reductions in lumbar CSF ([3]; after oral dosing of 30 or 90 mg) | safety and tolerability ([3]; Ph I) |
| --- | --- | --- | --- | --- |
| COc1cnc2c(Nc3cc(Cl)c(F)c([C@@]4(CF)N=C(N)O[C@@H]5C[C@@H]54)c3)nccc2n1 [Example 356, (1R,5S,6R)-5-(3-chloro-2-fluoro-5-((2-methoxypyrido[3,4-b]pyrazin-5-yl)amino)phenyl)-5-(fluoromethyl)-2-oxa-4-azabicyclo[4.1.0]hept-3-en-3-amine] | 725 µM | 0.0659 µM | – | – |
| C#CCOc1cnc(C(=O)Nc2cc(F)c(Cl)c([C@]3(CF)N=C(N)O[C@H]4C[C@H]43)c2)cn1 (racemic) [Example 140, N-(3-((1R/S,5S/R,6R/S)-3-amino-5-(fluoromethyl)-2-oxa-4-azabicyclo[4.1.0]hept-3-en-5-yl)-4-chloro-5-fluorophenyl)-5-(prop-2-yn-1-yloxy)pyrazine-2-carboxamide] | 86.9 µM | 0.006 µM | – | – |
| N#Cc1cnc2c(c1)CCC[C@@H]2Nc1ccc(F)c([C@@]2(C(F)F)N=C(N)O[C@@H]3C[C@@H]32)c1 (mixture of isomers) [Example 403, (R)-8-((3-((1R,5S,6R)-3-amino-5-(difluoromethyl)-2-oxa-4-azabicyclo[4.1.0]hept-3-en-5-yl)-4-fluorophenyl)amino)-5,6,7,8-tetrahydroquinoline-3-carbonitrile and (S)-8-((3-((1R,5S,6R)-3-amino-5-(difluoromethyl)-2-oxa-4-azabicyclo[4.1.0]hept-3-en-5-yl)-4-fluorophenyl)amino)-5,6,7,8-tetrahydroquinoline-3-carbonitrile] | 469 µM | 2.85 µM | – | – |
| NC1=N[C@@](c2cc(NC(=O)c3cnc(Cl)cn3)ccc2F)(C(F)F)[C@H]2C[C@H]2O1 [Example 261, N-(3-((1R,5S,6R)-3-amino-5-(difluoromethyl)-2-oxa-4-azabicyclo[4.1.0]hept-3-en-5-yl)-4-fluorophenyl)-5-chloropyrazine-2-carboxamide] | 444 µM | 0.037 µM | – | – |
| N#Cc1ccc2c(c1)OCC[C@@H]2Nc1ccc(F)c([C@@]2(C(F)F)N=C(N)O[C@@H]3C[C@@H]32)c1 (mixture of isomers) [Example 383, (R)-4-((3-((1R,5S,6R)-3-amino-5-(difluoromethyl)-2-oxa-4-azabicyclo[4.1.0]hept-3-en-5-yl)-4-fluorophenyl)amino)chroman-7-carbonitrile and (S)-4-((3-((1R,5S,6R)-3-amino-5-(difluoromethyl)-2-oxa-4-azabicyclo[4.1.0]hept-3-en-5-yl)-4-fluorophenyl)amino)chroman-7-carbonitrile] | 206 µM | 0.968 µM | – | – |
| C[C@@]1(c2cc(-c3cncnc3)c(F)cc2F)CCSC(N)=N1 [LY2811376, (S)-4-(2,4-difluoro-5-pyrimidin-5-yl-phenyl)-4-methyl-5,6-dihydro-4H-[1,3]thiazin-2-ylamine] | – | – | Prominent and long-lasting Aβ reductions | safe and well tolerated |
| COc1cc(Cl)cnc1C(=O)Nc1ccc(Cl)c([C@@]2(CF)N=C(N)O[C@@H]3C[C@@H]32)c1 [Example 297, N-(3-((1R,5S,6R)-3-amino-5-(fluoromethyl)-2-oxa-4-azabicyclo[4.1.0]hept-3-en-5-yl)-4-chlorophenyl)-5-chloro-3-methoxypicolinamide] | 835 µM | – | – | – |
| N#Cc1cnc2c(c1)CC[C@@H]2Nc1ccc(F)c([C@@]2(C(F)F)N=C(N)O[C@@H]3C[C@@H]32)c1 [Example 404] | – | 0.291 µM | – | – |
| C[C@@]1(c2cc(NC(=O)c3ccc(Cl)cn3)cnc2F)N=C(N)O[C@H]2C[C@H]21 [Example 333] | 816 µM | 0.13 µM | – | – |

Source: patent US9611261B2, “Perfluorinated cyclopropyl fused 1,3-oxazin-2-amine compounds as beta-secretase inhibitors and methods of use” (AMGEN INC., priority 2013, dated 2017)
